Literature values in publication PMC10623564, “Ruthenium-Based Photoactivated Chemotherapy” (Journal of the American Chemical Society, 2023).
pEC50, pIC50: −log10 of the molar value. Read-outs that look alike come from different tables or passages of the source. Marks after values point to notes of the source that are not given here.

Legend:
[1] = for φPS, mtep photosubstitution: in acetonitrile (521 nm printed for 23^+); for φPS, photosubstitution of one axial MeCN by chloride: 298 K, in CH2Cl2
[2] = not given; remark: listed apart in the source
[3] = for φΔ, singlet oxygen (1O2) generation quantum yield: in CD3OD solution
[4] = system: CRMM1 conjunctival melanoma cancer cell line; design: method as in PMID 35774173; settings: CRMM1 cells, green light
[5] = system: CRMM2 conjunctival melanoma cancer cell line; design: method as in PMID 35774173; settings: CRMM2 cells, green light
[6] = system: PC3Pro4 prostate cancer cell lines; design: method as in PMID 35774173; settings: PC3Pro4 cells, green light
[7] = system: orthotopic CRMM1 eye tumor model; design: method as in PMID 35774173
[8] = system: PC3Pro4 ectopic prostate zebrafish tumor model; design: method as in PMID 35774173; settings: compound in water or intravenous injection, green light
CYP3A4 = system: CYP3A4; design: method as in PMID 34110801; settings: Figure 8c, read-out: IC50, CYP3A4 protein activity
NAMPT = system: NAMPT; design: method as in PMID 28666065
A431 skin cancer cells = system: A431 skin cancer cells; design: method as in PMID 28666065
[9] = conditions not given
cancer cells = system: cancer cells; design: method as in PMID 30155140; settings: photosubstitution of the axial dmso ligand
[10] = λexc 450 nm, in water, room temperature
[11] = λexc 521 nm, in acetonitrile, room temperature
[12] = λexc 450 nm, in acetonitrile, room temperature
[13] = λexc not given, in water, room temperature

## CC#N.CC(=O)C=C(C)[O][Ru+].c1ccc(-c2cccc(-c3ccccn3)n2)nc1 [1^+, [Ru(tpy)(acac)(MeCN)]^+]
[1]; [10]
  φPS, quantum yield for photosubstitution: 0.014 (450) ^j
dark
  toxicity in the dark: quite toxic in the dark

## Cc1cccc(-c2cccc(C)n2)n1.[Ru+2].c1ccc(-c2ccccn2)nc1.c1ccc(-c2ccccn2)nc1 [2^2+, [Ru(bpy)2(dmbpy)]^2+]
[1]; λexc 413 nm, in acetonitrile, room temperature
  φPS, quantum yield for photosubstitution: 0.05 (413) ^f

## Oc1cccc(-c2cccc(O)n2)n1.[Ru+2].c1ccc(-c2ccccn2)nc1.c1ccc(-c2ccccn2)nc1 [3^2+, [Ru(bpy)2(6,6′-dOHbpy)]^2+]
[1]; λexc 450 nm, in aqueous solution at pH 5.0
  φPS, quantum yield for photosubstitution: 0.0058 (450) ^g
[1]; λexc 450 nm, in aqueous solution at pH 7.5
  φPS, quantum yield for photosubstitution: 0.0012 (450) ^h
[2]; Table 1 row with φPS in aqueous solution at pH 5.0
  λmax^MLCT: 462 nm
[2]; Table 1 row with φPS in aqueous solution at pH 7.5
  λmax^MLCT: 493 nm
[3]; Table 1 row with φPS at pH 5.0
  φΔ, singlet oxygen (1O2) generation quantum yield: 0.041 ^i
[3]; Table 1 row with φPS at pH 7.5
  φΔ, singlet oxygen (1O2) generation quantum yield: 0.18 ^i

## CSCc1ccccn1.[Ru+2].c1ccc(-c2ccccn2)nc1.c1ccc(-c2ccnc3c2ccc2c(-c4ccccc4)ccnc23)cc1 [5^2+, [Ru(dpp)(bpy)(mtmp)]^2+]
[1]; in deaerated acetonitrile
  photosubstitution quantum yield: 0.11
[1]; [11]
  φPS, quantum yield for photosubstitution: 0.111 (521) ^f
[4]
  PI value (photoindex): 8.5
[5]
  PI value (photoindex): 8.8
[6]
  PI value (photoindex): > 31
[7]; four consecutive PACT treatments of 90 min irradiation (114 J/cm^2) each, 520 nm
  activation in vivo: clear activation
[7]; orthotopic eye tumor model, retro-orbital injection, green light (520 nm, 114 J/cm^2)
  antitumor activity in vivo: good antitumor activity
[8]
  antitumor activity in vivo: no antitumor activity

## N.N.[Ru+2].c1ccc(-c2ccccn2)nc1.c1ccc(-c2ccccn2)nc1 [8^2+, [Ru(bpy)2(NH3)2]^2+]
[1]; λexc 350 nm, in water, room temperature
  φPS, quantum yield for photosubstitution: 0.024 (350) ^j

## CC(C)(C)OC(=O)N[C@H](CSCCC(=O)NCc1cccnc1)Cc1ccccc1.Cc1cccc(-c2cccc(C)n2)n1.[Ru+2].c1ccc(-c2cccc(-c3ccccn3)n2)nc1 [11^2+, [Ru(tpy)(dmbpy)(R-py)]^2+]
[1]; λexc 500 nm, in acetonitrile, room temperature
  φPS, quantum yield for photosubstitution: 0.31 (500) ^f
[1]; λexc 500 nm, in water, room temperature
  φPS, quantum yield for photosubstitution: 0.15 (500) ^j
CYP3A4; after light activation
  pIC50: 5.66
CYP3A4; in the dark
  pIC50: 6.05

## CC(C)(C)c1ccc(S(=O)(=O)NCc2ccc(C(=O)Nc3cccnc3)cc2)cc1.[Ru+2].c1ccc(-c2cccc(-c3ccccn3)n2)nc1.c1ccc2nc(-c3ccc4ccccc4n3)ccc2c1 [12^2+, [Ru(tpy)(biq)(STF31)]^2+]
[1]; λexc 625 nm, in water, room temperature
  φPS, quantum yield for photosubstitution: 0.013 (625) ^j
[2]; Figure 6 bottom
  λmax (absorption maximum): 531 nm
[2]; λexc = 625 nm (red light)
  εexc, molar absorption coefficient at the excitation wavelength: 379 M^–1·cm^–1
NAMPT; NAMPT, dark
  loss of potency on caging relative to STF31: 18 times
NAMPT; caged compound in the dark, read-out: IC50,dark, NAMPT inhibition
  pIC50: 5.32
A431 skin cancer cells; A431 cells, normoxia (21% O2)
  PI value (photoindex): 3.3
A431 skin cancer cells; A431 skin cancer cells, normoxia, dark
  pEC50: 4.63
A431 skin cancer cells; hypoxic A431 cells (1% O2)
  PI value (photoindex): 3.6

## CC#N.CC#N.[Ru+2].c1ccc(-c2ccccn2)nc1.c1ccc2cc3nc4c5cccnc5c5ncccc5c4nc3cc2c1 [17^2+, [Ru(bpy)(dppn)(MeCN)2]^2+]
[1]; λexc 400 nm, in water, room temperature
  φPS, quantum yield for photosubstitution: 0.002 (400) ^j

## CSCCc1ccccn1.[Ru+][c]1ccccc1-c1ccccn1.c1ccc(-c2ccccn2)nc1 [23^+, [Ru(bpy)(phpy)(mtep)]^+]
[1]
  φPS, mtep photosubstitution: 0.00035
[1]; [11]
  φPS, quantum yield for photosubstitution: 0.00035 (521) ^f

## CC(C)(C)c1ccc(S(=O)(=O)NCc2ccc(C(=O)Nc3cccnc3)cc2)cc1 [STF31, reference compound]
NAMPT; uncaged inhibitor, read-out: IC50, NAMPT inhibition
  pIC50: 6.60

## CC#N.CC#N.[Ru+2].c1ccc(-c2ccccn2)nc1.c1ccc(-c2ccccn2)nc1 [[Ru(bpy)2(MeCN)2]^2+, reference compound]
[1]; [10]
  φPS, quantum yield for photosubstitution: 0.22 (450) ^j
[1]; λexc printed as 40098 nm, in water, room temperature
  φPS, quantum yield for photosubstitution: 0.21 (40098) ^j

## CSCCc1ccccn1.[Ru+2].c1ccc(-c2ccccn2)nc1.c1ccc(-c2ccccn2)nc1 [[Ru(bpy)2(mtep)]^2+, reference compound]
[1]
  φPS, mtep photosubstitution: 0.0030

## [Ru+2].c1ccc(-c2ccccn2)nc1.c1ccc(-c2ccccn2)nc1.c1ccc(-c2ccccn2)nc1 [[Ru(bpy)3]^2+, reference compound]
[1]; λexc 436 nm, at 363 K in 0.1 M aqueous HCl
  φPS, quantum yield for photosubstitution: 0.00053 (436) ^e
[1]; [12]
  φPS, quantum yield for photosubstitution: 0 (450) ^f
[9]
  φP (phosphorescence): ≈ 0.02
[3]; conditions not given
  φΔ (generator of 1O2): ≈ 0.73

## CC#N.CC#N.CC#N.[Ru+2].c1ccc(-c2cccc(-c3ccccn3)n2)nc1 [[Ru(tpy)(MeCN)3]^2+, reference compound]
[1]; 436 nm
  φPS, photosubstitution of one axial MeCN by chloride: 0.040
[1]; 480 nm
  φPS, photosubstitution of one axial MeCN by chloride: 0.041

## CSCCO.[Ru+2].c1ccc(-c2cccc(-c3ccccn3)n2)nc1.c1ccc(-c2ccccn2)nc1 [[Ru(tpy)(bpy)(Hmte)]^2+, reference compound]
[1]; λexc 452 nm, in water, room temperature
  φPS, quantum yield for photosubstitution: 0.022 (452) ^j

## O.[Ru+2].c1ccc(-c2cccc(-c3ccccn3)n2)nc1.c1ccc(-c2ccccn2)nc1 [[Ru(tpy)(bpy)(OH2)]^2+, reference compound]
other
  toxicity of the complex by itself: poorly toxic

## CS(C)=O.[Ru+2].c1ccc(-c2cccc(-c3ccccn3)n2)nc1.c1ccc(-c2ccccn2)nc1 [[Ru(tpy)(bpy)(dmso)]^2+, reference compound]
[1]; at 450 nm
  quantum yield of photosubstitution of dmso by acetonitrile: 0.016
[1]; [12]
  φPS, quantum yield for photosubstitution: 0.016 (450) ^f

## Cc1cccc(-c2cccc(C)n2)n1.[Cl-].[Cl][Ru+].c1ccc(-c2cccc(-c3ccccn3)n2)nc1 [[Ru(try)(dmbpy)Cl]Cl, [Ru(tpy)(dmbpy)Cl]Cl, reference compound]
CYP3A4
  pIC50: 4.30

## CP(C)C.[Ru+2].c1c[nH]cn1.c1ccc(-c2ccccn2)nc1.c1ccc(-c2ccccn2)nc1 [cis-9^2+, cis-[Ru(bpy)2(PMe3)(ImH)]^2+]
[1]; [13]
  φPS, quantum yield for photosubstitution: 0.10 ^j
[2]
  absorption maximum: 432 nm

## CC(C)(C)OC(=O)N[C@H](CSCCC(=O)NCc1cccnc1)Cc1ccccc1 [compound 24]
CYP3A4
  pIC50: 5.82

## CP(C)C.[Ru+2].c1c[nH]cn1.c1ccc(-c2ccccn2)nc1.c1ccc(-c2ccccn2)nc1 [trans-9^2+, trans-[Ru(bpy)2(PMe3)(ImH)]^2+]
[1]; [13]
  φPS, quantum yield for photosubstitution: 0.23 ^j
[2]
  absorption maximum: 464 nm

## [Ru(bapbpy)(dmso)(OH2)]^+ [10^2+]
[1]; [10]
  φPS, quantum yield for photosubstitution: 0.003 (450) ^j
Cancer cells
  effect of light irradiation performed in cancer cells: led to cell death
